Assays:
[1] = system: differentiated PC12 cells; experiment: Survival of differentiated PC12 cells after NGF withdrawal, cell viability by reduction of MTS; assay type: cell-based
Description: (§1) Survival of Differentiated PC12 Cells after NGF Withdrawal
(§2) PC12 cells are considered models for […] neurons for the investigation of neuronal differentiation and apoptosis.
(§3) PC12 cells were seeded in collagen coated 96 well plates at a cell density of 8000/cm^2 in DMEM with 7.5% FCS, 7.5% HS and 2 nM NGF and cultured for 6 days.
(§4) The medium was then changed to DMEM without serum supplemented with the compound of the test compound in the concentrations indicated in FIG. 1. As a positive control, parallel wells receiving serum-free DMEM without addition of vehicle or 3 nM NGF were included.
After 4 days of incubation, cell viability was evaluated by reduction of MTS using the CellTiter 96 AQueous Non-radioactive Cell Proliferation Assay (available from Promega).
Data are expressed as % of the response seen with 3 nM NGF, and corrected for residual MTS reduction activity in the parallel serum-free cultures, cf. FIG. 1A.

[2] = system: differentiated PC12 cells; experiment: Survival of differentiated PC12 cells after NGF withdrawal, cell viability by CyQUANT; assay type: cell-based; conditions: differentiated PC12 cells in serum-free medium, after 4 days; FIG. 1B
Description: as §1, §2, §3, §4
In another assay cell viability after 4 days was evaluated by using the CyQUANT Cell Proliferation Kit from Molecular Probes. CyQUANT might give a better correlation with the actual cell number of the culture than MTS, which rather reflects the total metabolic activity of the culture, cf. FIG. 1B.

## CCCCN1CCc2oc(-c3ccc([N+](=O)[O-])cc3)cc2C1.O=C(O)/C=C/C(=O)O [Compound 1, 6-(4-Nitrophenyl)-furano[3,2-c]-N-butyl-1,2,3,4-tetrahydropyridine Fumaric Acid Salt]
[1]; at nanomolar concentrations, stated for both MTS and CyQUANT experiments
  rescue of differentiated PC12 cells in serum-free medium: potent dose-dependent rescue
[1]; differentiated PC12 cells in serum-free medium, 4 days of incubation, % of the response seen with 3 nM NGF, corrected for serum-free cultures, FIG. 1A
  maximal protection (cell viability, MTS): approximately 30%
[1]; differentiated PC12 cells in serum-free medium, tested 1 nM to 10 μM, stated for both MTS and CyQUANT experiments
  concentration giving maximal protection: 100 nM
[2]
  maximal rescue (cell survival, CyQUANT): approximately 50%
